One series has as its system EBC1. The series is classed as cell-based, human.
Another series has as its system H3255. Format: cell-based, human.
The subject of series [1] is normal human, murine or primate cell and tissue types. The series is described as follows: Cytotoxicity, panel of normal tissues (MTT, alamar blue). The series is classed as cell-based. (In general: Resazurin is reduced to fluorescent resorufin, in cell work by metabolically active cells.)
Another series deals with PC9. Format: cell-based, human.
The test system of a further series is PC1 (jap). The series is classed as cell-based, human.
A further series has as its system HCC827. Format: cell-based, human.
Another series deals with BMMSC BM mesenchyme. Nature of the series: Cytotoxicity normal tissue 72 hr. The series is classed as cell-based, human.
In a further series the test system is CALU-1. The series is classed as cell-based, human.
For series [2], the system named is nude mice bearing prostate 22Rv/HL2. The following applies: mouse, in vivo.
The test system of the next series is H3122. The series is classed as cell-based, human.
The subject of a further series is A549. The series is classed as cell-based, human.
Series [3] deals with nude mice bearing prostate 22Rv/HL2. The following applies: mouse, in vivo. This is another data set of the same source.
In the next series the test system is H1395. The series is classed as cell-based, human.
For the next series, the system named is CALU-6. The series is classed as cell-based, human.
Another series concerns H1666. The series is classed as cell-based, human.
The subject of another series is HCC2450. The series is classed as cell-based, human.
Another series deals with HCC15. Format: cell-based, human.
For the next series, the system named is H1650. Format: cell-based, human.
The subject of series [4] is MRC5 fetal lung fibroblast. The series is classed as cell-based, human.
Series [5] deals with nude mice bearing prostate 22Rv/HL2 tumor xenografts. The following applies: mouse, in vivo.
The test system of the next series is H1781. The series is classed as cell-based, human.
For the next series, the system named is H1975. Format: cell-based, human.
For the next series, the system named is H1373. Format: cell-based, human.
Another series relates to HCC364. The series is classed as cell-based, human.
For a further series, the system named is H1755. The series is classed as cell-based, human.
In another series the test system is HS27 adult BM stroma. The series is classed as cell-based, human.
Another series relates to H2228. Format: cell-based, human.
Series [6] has as its system BEAS2B SV40 bronchial epithelium. Format: cell-based, human.
The test system of another series is H596. The series is classed as cell-based, human.
Series [7] deals with Cord Blood CFC (CFU-GM, BFU-E, CFU-C). Format: cell-based, human.
The subject of a further series is H520. Format: cell-based, human.
For another series, the system named is H525. The series is classed as cell-based, human.
Another series has as its system SK-LU-1. Format: cell-based, human.
Series [8] deals with IMR90 fetal lung myofibroblast. The series is described as follows: Cytotoxicity normal tissue 72 hr. The series is classed as cell-based, human.
The subject of a further series is H1703. Format: cell-based, human.
The test system of another series is SK-MES-1. Format: cell-based, human.
For series [9], the system named is 16HBE SV40+ bronchial epithelium. Format: cell-based, human.
The next series concerns CALU-3. The series is classed as cell-based, human.
A further series deals with H647. The series is classed as cell-based, human.
In another series the test system is JEKO-1. Nature of the series: Cytotoxicity mantle cell lymphoma.
The next series concerns FBMC fetal BM stroma. Nature of the series: Cytotoxicity normal tissue 72 hr. Format: cell-based. The following applies: Homo sapiens.
The subject of another series is MS-5 adult BM stroma. Nature of the series: Cytotoxicity normal tissue 72 hr. Format: cell-based, mouse. The following applies: MS-5 (mouse), 72 hr; listed as TMZ; read-out: IC50.
In series [10] the test system is Rhabdomyosarcoma cell lines. The series is described as follows: Cytotoxicity, sarcoma panel (Table 30). The series is classed as cell-based. The following applies: Homo sapiens, 5/6 rhabdomyosarcoma lines.
The test system of a further series is CV1 renal fibroblasts. Nature of the series: Cytotoxicity normal tissue 72 hr. The following applies: Chlorocebus sabaeus, Fibroblast; CV1 primate, 72 hr; read-out: IC50. Format: cell-based, African green monkey (Cercopithecus aethiops).
In the next series the test system is A204 rhabdomyosarcoma. Nature of the series: Cytotoxicity sarcoma. The following applies: read-out: cytotoxic activity (IC50), A204 (rhabdoid?).
Series [11] has as its system primary patient Ewing's sarcoma xenograft in NSG mice. Nature of the series: Cyclophosphamide-resistant primary Ewing's sarcoma xenograft. The series is classed as in vivo, mouse. The following applies: cyclophosphamide 70 mg/kg i.p. x3, then BO-1055 30 mg/kg iv x4.

We go through four compounds from US20200246284A1 (Academia Sinica, priority 2015, published 2020).

Like-named read-outs stand apart in the source and are kept apart here.

Protocol for A204 rhabdomyosarcoma: (§1) After 72 hours, the cultures were pulsed with Alamar Blue overnight, and the fluorescent intensity of resulted cultures was measured by a Synergy H1 plate-reader (BioTek Inc).
Protocol for JEKO-1: as §1

Broadly, the IC50 is the concentration needed to halve the response being measured. As for `N.N.O=C([O-])C1(C(=O)[O-])CCC1.[Pt+2]` [Carboplatin], the IC50 with EBC1 was 168 µM; in the series on H3255, 24.3 µM; in series [1] it was at least 32.8 µM; in the series on PC9, 32.1 µM; with PC1 (jap), 57.4 µM; with HCC827 it was 138 µM. Moreover, the IC50 is 32.8 µM in the series on BMMSC BM mesenchyme; 96.2 µM in the series with CALU-1; 109 µM with H3122; 41.3 µM in the series with A549; 17.4 µM with H1395; 14.7 µM in the series with CALU-6. Besides, the IC50 in the series with H1666 was determined as 90.7 µM; in the series with HCC2450, 34.5 µM; with HCC15, 173 µM; with H1650, 69.7 µM; in series [4] it was 210 µM; with H1781, 3.99 µM. Further, the IC50 in the series on H1975 came out at 60.2 µM; in the series with H1373 it was 29.3 µM; in the series on HCC364, 172 µM; in the series on H1755 it was 41.4 µM; with HS27 adult BM stroma, 35.3 µM; in the series with H2228 it was 8.62 µM. Further, the IC50 in [6] turned out to be 120 µM; with H596, 34.1 µM; in series [7], 1.7 µM; in the series with H520, 75.6 µM; in the series with H525, 72.7 µM; in the series on SK-LU-1 it was 42.4 µM. For the same compound, the IC50 in [8] was 1000 µM; in the series on H1703, at least 80 µM; with SK-MES-1 it was 160 µM; in series [9], 35.5 µM; in the series on CALU-3 it was 84.5 µM; in the series on H647, 25.5 µM. This compound also gave an ALT in series [2] of 64.85 U/L. The compound further registered an AST in series [2] of 119.15 U/L. The compound further displayed a BUN in [2] of 21.17 mg/dL. The CREA in series [2] came to 0.31 mg/dL. Besides, the UA in series [2] was found to be 1.97 mg/dL. Besides, the BASO in series [3] is given as 0.03 10^3/μL. Also, the EOS in series [3] is given as 0.13 10^3/μL. Besides, the LYM in series [3] is on record as 0.60 10^3/μL. The MONO in series [3] is listed as 0.07 10^3/μL. Besides, in [3], the NEU is reported as 1.13 10^3/μL. Further, the PLT in series [3] is 369 10^3/μL. For the same compound, the RBC in series [3] is 9.37 10^6/μL. Besides, the WBC in series [3] is 1.97 10^3/μL. The “pathological change in heart, liver, spleen, lung and kidney” value in [5] is on record as “no apparent pathological change”.

Turning to `N[C@@H](Cc1ccc(N(CCCl)CCCl)cc1)C(=O)O` [Melphalan], the values for the IC50 with JEKO-1 and with FBMC fetal BM stroma were 1.1 µM and over 10 µM, respectively.

As for `Cn1nnc2c(C(N)=O)ncn2c1=O` [Temozolomide], the IC50 in the series with MS-5 adult BM stroma was 5.59 µM; in series [1] (5 highly drug resistant normal tissues) it was at least 20 µM; in series [10] it was at least 191 µM; in the series with CV1 renal fibroblasts, over 100 µM; with A204 rhabdomyosarcoma, 569 µM.

For the compound `O=P1(N(CCCl)CCCl)NCCCO1` (stereo not shown) [cyclophosphamide], the tumor growth result in series [11] is recorded as “Tumor growth was not inhibited”.
